The results in this text go back to patent publication US9464064B2, “HCV helicase inhibitors and methods of use thereof” (University of Kansas, priority 2011, dated 2016).

What is called inhibition is how much of the control response was suppressed. As a reminder, the EC50 is the concentration giving half of the maximal effect. By IC50 is commonly meant the concentration needed to halve the response being measured. The low end stands for higher potency, the high end for lower potency.

One assay addresses scNS4A-NS3 (Hepatitis C virus genotype 1b, UniProt Q9WMX2). In words: NS3 protease assay (ENZOLYTE 520), full-length. More on the design: other: 100 μM, highest concentration tested; other: versus P4; There is also a His tag. The format is biochemical, hepatitis C virus genotype 1b(con1). The protocol:
All oligonucleotides were purchased from Integrated DNA Technologies (IDT, Coralville, Iowa). Primuline derivatives were synthesized and purified as described herein. Three different NS3 proteins were used in this study. Two were truncated C-terminally His-tagged NS3 proteins lacking the N-terminal protease, called NS3h, the third was a full-length NS3 with the portion of NS4A needed for protease activation fused to its N-terminus, called scNS4A-NS3 (Howe, et al. (1999) Protein Sci. 8:1332-41), and the fourth was a 23 kDa scNS4A-NS3 protease fragment lacking the helicase domains, called scNS4A-NS3p (Protein One, Rockville, Md.). NS3h was expressed from two different HCV strains. NS3h_1b(con1) was from the con1 strain of genotype 1b (GENBANK accession AB114136), and NS3h_2a(JFH1) was from the JFH1 strain of HCV genotype 2a (GENBANK accession AJ238799). […] His-tagged recombinant NS3h_1b(con1), NS3h_2a(JFH1), and scNS4A-NS3 (also from genotype 1b(con1)) were expressed, and purified as previously described (Frick, et al. (2010) supra; Lam, et al. (2003) J. Virol. 77:3950-3961). […]
All NS3 protease assays were carried out using the 5-Carboxyfluorescein-labeled substrate from the AnaSpec. […] Assays were carried out in a total volume of 20 μl in black 384-well plates with fluorescence at 520 nm measured using a BMG FLUOstar Omega fluorescence spectrophotometer. […]

The target of the next assay is MBHA DNA substrate. Put plainly: Fluorescent intercalation displacement (FID) assay, ethidium bromide. The format is binding. The following applies: FID; mean ± SD; read-out: DNA Binding (Ethidium Bromide) EC50. The procedure: Fluorescent intercalation displacement (FID) assays (Boger, et al. (2001) J. Am. Chem. Soc. 123:5878-5891) were used to measure the ability of a compound to bind the MBHA substrate. The concentration at which half the ethidium bromide is displaced (EC50) was determined using the different conditions as above to more closely mimic the conditions of a standard helicase assay. Each 100 μL reaction contained 25 mM MOPS pH 6.5, 0.16 μM MBHA DNA substrate (lacking Cy5 and IBQ-RQ modifications), 2 μM ethidium bromide, and various concentrations of test compound. Fluorescence of ethidium bromide was monitored using excitation and emission wavelengths of 545 and 595 nm, respectively, on a Cary Eclipse fluorescence spectrophotometer in white 96-well plates. The amount of ethidium bromide-DNA complex fluorescence was used to estimate the ability of compounds to bind DNA, and therefore displace the fluorescent intercalator (ethidium bromide).
In Equation 4, Fc is the fluorescence in the presence of the compound, F(−) is the average DMSO-only negative controls, and F(+) is the average positive controls (100 μM berenil). EC50 values were from a normalized dose-response curve.
These twelve hits were then subjected to a counterscreen designed to independently identify DNA binding compounds using a modified fluorescent intercalator displacement (FID) assay (Boger, et al. (2001) supra). The FID assay used ethidium bromide to judge a compound's ability to bind DNA and was based on the assumption that a DNA binding compound would displace a fluorescent DNA intercalating agent, leading to an observable decrease in observed fluorescence. Compounds were tested at 1.5 μM in the presence of the 25 base pair substrate used in the helicase assays.

In a further assay the target is T1, NS3h_1b(con1) (Hepatitis C virus genotype 1b, UniProt Q9WMX2).
T1 construct: truncated C-terminally His-tagged NS3 proteins lacking the N-terminal protease, called NS3h; His-tag (C); made in house
Put plainly: ATP hydrolysis assay (malachite green). The format is biochemical. The protocol: A modified “malachite green” assay (Lanzetta, et al. (1979) Anal. Biochem. 100:95-97) was used to measure ATP hydrolysis. Fifty μL reactions contained 25 mM MOPS pH 6.5, 5 mM MgCl2, 2 mM ATP, 5 μg/mL BSA, 0.01% (v/v) TWEEN 20, 0.05 mM DTT, and poly(U) RNA (Saint Louis, Mo.) as indicated. Reactions were initiated by adding NS3h_1b(con1). Reactions were incubated for 15 minutes at 37° C. then stopped by mixing 40 μL of the reaction into 200 μL of the malachite green reagent (3 volumes 0.045% (w/v) malachite green, 1 volume 4.2% ammonium molybdate in 4N HCl, 0.05 volume of 20% TWEEN 20). […] Absorbance at 630 nm was proportional to the concentration of phosphate produced; free phosphate produced was measured against a standard curve.

T1 sequence (Q9WMX2 1192-1657): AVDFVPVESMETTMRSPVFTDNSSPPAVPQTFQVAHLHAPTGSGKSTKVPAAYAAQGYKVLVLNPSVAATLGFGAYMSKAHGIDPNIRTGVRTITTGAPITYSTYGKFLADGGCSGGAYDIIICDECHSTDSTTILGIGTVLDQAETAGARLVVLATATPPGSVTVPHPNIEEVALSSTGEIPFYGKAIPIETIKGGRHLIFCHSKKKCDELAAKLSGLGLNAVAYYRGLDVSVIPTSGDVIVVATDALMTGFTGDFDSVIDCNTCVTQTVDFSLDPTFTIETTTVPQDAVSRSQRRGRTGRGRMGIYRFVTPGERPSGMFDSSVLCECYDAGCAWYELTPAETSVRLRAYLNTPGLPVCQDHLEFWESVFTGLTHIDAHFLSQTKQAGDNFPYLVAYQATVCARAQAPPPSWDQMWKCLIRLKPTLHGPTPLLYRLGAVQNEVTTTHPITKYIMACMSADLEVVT
Sequence of scNS4A-NS3 (Q9WMX2 1027-1657): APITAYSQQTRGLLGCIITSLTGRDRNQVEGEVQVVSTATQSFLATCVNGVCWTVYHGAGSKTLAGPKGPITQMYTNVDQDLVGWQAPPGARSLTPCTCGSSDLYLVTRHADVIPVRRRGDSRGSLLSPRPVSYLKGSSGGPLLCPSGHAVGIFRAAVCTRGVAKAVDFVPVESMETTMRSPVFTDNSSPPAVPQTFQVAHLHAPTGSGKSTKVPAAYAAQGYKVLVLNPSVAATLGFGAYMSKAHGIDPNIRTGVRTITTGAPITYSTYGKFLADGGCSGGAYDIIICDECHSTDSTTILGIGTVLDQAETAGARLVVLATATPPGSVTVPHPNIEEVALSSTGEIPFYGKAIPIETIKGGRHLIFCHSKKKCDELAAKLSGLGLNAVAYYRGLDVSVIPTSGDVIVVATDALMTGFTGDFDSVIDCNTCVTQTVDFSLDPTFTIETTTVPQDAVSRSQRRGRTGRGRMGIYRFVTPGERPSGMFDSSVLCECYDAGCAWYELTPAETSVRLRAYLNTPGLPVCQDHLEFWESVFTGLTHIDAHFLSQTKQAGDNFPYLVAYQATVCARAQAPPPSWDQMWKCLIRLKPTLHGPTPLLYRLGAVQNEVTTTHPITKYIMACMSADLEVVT

Regarding `Cc1ccc2nc(-c3ccc4nc(-c5ccc(NC(=O)c6cccc(Cl)c6)cc5)sc4c3)sc2c1S(=O)(=O)O` [Compound 17, 2′-(4-(3-chlorobenzamido)phenyl)-6-methyl-[2,6′-bibenzo[d]thiazole]-7-sulfonic acid], the “times less potent protease inhibitor than compound P4” value on scNS4A-NS3 (versus P4) turned out to be 50 times.

For `Cc1ccc2nc(-c3ccc4nc(-c5ccc(N)cc5)sc4c3)sc2c1S(=O)(=O)O` [Compound P2a, 2′-(4-aminophenyl)-6-methyl-[2,6′-bibenzo[d]thiazole]-7-sulfonic acid], the inhibition at 100 µM at scNS4A-NS3 (read-out: inhibition of protease) is at most 50%. At MBHA DNA substrate, the EC50 is above 100 µM.

As for `Cc1ccc2nc(-c3ccc4nc(-c5ccc6nc(-c7ccc(N)cc7)sc6c5)sc4c3)sc2c1S(=O)(=O)O` [Compound P3, 2″-(4-aminophenyl)-6-methyl-[2,6′:2′,6″-terbenzo[d]thiazole]-7-sulfonic acid], at MBHA DNA substrate, the EC50 is 55 ± 20 µM. At NS3h_1b(con1), this molecule displayed an IC50 of 15 ± 4 µM.

As for `Cc1ccc2nc(-c3ccc4nc(-c5ccc6nc(-c7ccc8nc(-c9ccc(N)cc9)sc8c7)sc6c5)sc4c3)sc2c1S(=O)(=O)O` [Compound P4, 2′″-(4-aminophenyl)-6-methyl-[2,6′:2″,6′″-quaterbenzo[d]thiazole]-7-sulfonic acid], the EC50 at MBHA DNA substrate was determined as 15 ± 3 µM. Also, on NS3h_1b(con1), the IC50 was 5 ± 3 µM. For the same molecule, the “effect on NS3 ATP hydrolysis” value at NS3h_1b(con1) (presence and absence of RNA) is “inhibited ATP hydrolysis both in the presence and absence of RNA”.
